Source: US20090092603A1, “EARLY DIAGNOSIS AND TREATMENT OF DRUG RESISTANCE IN MUC1-POSITIVE CANCER” (priority 2007, published 2009)
Read-outs that look alike come from different tables or passages of the source.

Tested on: HERCEPTIN-resistant BTRes1 cells
Details: drug with control Fab, compared to BT474

O=P1(N(CCCl)CCCl)NCCCO1 (centres unmarked) [cyclophosphamide]
cytotoxic effect of the drug in cells that acquired HERCEPTIN® resistance: acquired resistance
cytotoxic effect of the drug in cells that acquired HERCEPTIN® resistance (listed as Cyclophosphamide): lost
